Reference: PubChem BioAssay (NCI)
Values joined by “and” are separate entries in the source; they are usually repeats but may differ in a detail not shown here. Equal values may be shown once.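 Values below derive from 48-hour exposures of cells grown in 96-well plates, with endpoints linearly interpolated between the two concentrations bracketing the appropriate inhibition level. Here, GI50 denotes the concentration required for 50% inhibition of growth. Definition used: TGI = concentration required for complete inhibition of growth.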

Assays:
Test in all cases: DTP human tumour cell line panel, 48 h
[1] = tested on: T-47D breast
[2] = tested on: MCF7 breast
[3] = tested on: SN12C renal
[4] = tested on: ACHN renal
[5] = tested on: RPMI-8226 leukemia
[6] = tested on: A498 renal
[7] = tested on: MDA-MB-231 breast
[8] = tested on: DU-145 prostate
[9] = tested on: SNB-19 CNS
[10] = tested on: SK-OV-3 ovarian
[11] = tested on: HOP-92 NSCLC
[12] = tested on: HT29 colon
[13] = tested on: SK-MEL-5 melanoma
[14] = tested on: 786-0 renal
[15] = tested on: MOLT-4 leukemia
[16] = tested on: NCI/ADR-RES ovarian
[17] = tested on: KM12 colon
[18] = tested on: OVCAR-4 ovarian
[19] = tested on: SW-620 colon
[20] = tested on: SF-295 CNS
[21] = tested on: IGROV1 ovarian
[22] = tested on: NCI-H226 lung
[23] = tested on: U251 CNS
[24] = tested on: M14 melanoma
[25] = tested on: A549 NSCLC
[26] = tested on: HCT-116 colon
[27] = tested on: OVCAR-5 ovarian
[28] = tested on: COLO 205 colon
[29] = tested on: K-562 leukemia
[30] = tested on: LOX IMVI melanoma
[31] = tested on: NCI-H460 lung
[32] = tested on: PC-3 prostate
[33] = tested on: HCT-15 colon
[34] = tested on: UACC-257 melanoma
[35] = tested on: HL-60(TB) leukemia
[36] = tested on: UO-31 renal
[37] = tested on: OVCAR-3 ovarian
[38] = tested on: UACC-62 melanoma
[39] = tested on: SK-MEL-2 melanoma
[40] = tested on: HCC-2998 colon
[41] = tested on: CAKI-1 renal
[42] = tested on: TK-10 renal
[43] = tested on: RXF 393 renal
[44] = tested on: CCRF-CEM leukemia
[45] = tested on: SF-268 CNS
[46] = tested on: MDA-MB-435
[47] = tested on: HOP-62 NSCLC
[48] = tested on: MALME-3M melanoma
[49] = tested on: EKVX NSCLC
[50] = tested on: NCI-H522 lung
[51] = tested on: OVCAR-8 ovarian
[52] = tested on: MDA-N
[53] = tested on: SF-539 CNS
[54] = tested on: SK-MEL-28 melanoma
[55] = tested on: NCI-H23 lung
[56] = tested on: HS 578T breast
[57] = tested on: BT-549 breast
[58] = tested on: SNB-75 CNS
[59] = tested on: SR leukemia

Cc1cn(CC2=NCC(O)CN2)c(=O)[nH]c1=O (stereo not given)
TGI [1]: > 100000 nM | TGI [2]: > 100000 nM | TGI [3]: > 100000 nM | TGI [4]: > 100000 nM | TGI [5]: > 100000 nM | TGI [6]: > 100000 nM | TGI [7]: > 100000 nM | TGI [8]: > 100000 nM | TGI [9]: > 100000 nM | TGI [10]: > 100000 nM | TGI [11]: > 100000 nM | TGI [12]: > 100000 nM | TGI [13]: > 100000 nM | TGI [14]: > 100000 nM | TGI [15]: > 100000 nM | TGI [16]: > 100000 nM | TGI [17]: > 100000 nM | TGI [18]: > 100000 nM | TGI [19]: > 100000 nM | TGI [20]: > 100000 nM | TGI [21]: > 100000 nM | TGI [22]: > 100000 nM | TGI [23]: > 100000 nM | TGI [24]: > 100000 nM | TGI [25]: > 100000 nM | TGI [26]: > 100000 nM | TGI [27]: > 100000 nM | TGI [28]: > 100000 nM | TGI [29]: > 100000 nM | TGI [30]: > 100000 nM | TGI [31]: > 100000 nM | TGI [32]: > 100000 nM | TGI [33]: > 100000 nM | TGI [34]: > 100000 nM | TGI [35]: > 100000 nM | TGI [36]: > 100000 nM | TGI [37]: > 100000 nM | TGI [38]: > 100000 nM | TGI [39]: > 100000 nM | TGI [40]: > 100000 nM | TGI [41]: > 100000 nM | TGI [42]: > 100000 nM | TGI [43]: > 100000 nM | TGI [44]: > 100000 nM | TGI [45]: > 100000 nM | TGI [46]: > 100000 nM | TGI [47]: > 100000 nM | TGI [48]: > 100000 nM | TGI [49]: > 100000 nM | TGI [50]: > 100000 nM | TGI [51]: > 100000 nM | TGI [52]: > 100000 nM | TGI [53]: > 100000 nM | TGI [54]: > 100000 nM | TGI [55]: > 100000 nM

CO[C@@H](C)Cn1c(=O)n(C)c2cnc3ccc(-c4cncc(C(C)(C)O)c4)cc3c21
GI50 [1]: 40.9 nM and 28.4 nM | TGI [1]: 378 nM and 208 nM | GI50 [2]: 140 nM and 59.3 nM | TGI [2]: 47900 nM and > 10000 nM | GI50 [3]: 112 nM and 54.4 nM | TGI [3]: 70000 nM and > 10000 nM | GI50 [4]: 135 nM and 97.5 nM | TGI [4]: > 100000 nM | GI50 [5]: 186 nM and 59 nM | TGI [5]: 2060 nM and 968 nM | GI50 [6]: 27.3 nM and 10.9 nM | TGI [6]: 124 nM and 59.1 nM | GI50 [7]: 166 nM and 44 nM | TGI [7]: 3870 nM and 2120 nM | GI50 [8]: 93.5 nM and 59.1 nM | TGI [8]: > 100000 nM | GI50 [9]: 143 nM and 77.3 nM | TGI [9]: 7790 nM and > 10000 nM | GI50 [10]: 48.8 nM and 42.4 nM | TGI [10]: 358 nM and 285 nM | GI50 [11]: 109 nM and 27.9 nM | TGI [11]: 644 nM and 188 nM | GI50 [56]: 28.6 nM | TGI [56]: 191 nM | GI50 [12]: 93.3 nM and 75.6 nM | TGI [12]: 12700 nM and > 6870 nM | GI50 [13]: 103 nM and 99.2 nM | TGI [13]: 408 nM and 418 nM | GI50 [14]: 59 nM and 41.8 nM | TGI [14]: 2200 nM and 1990 nM | GI50 [15]: 196 nM and 163 nM | TGI [15]: 1770 nM and 4100 nM | GI50 [16]: 1060 nM and 384 nM | TGI [16]: 14000 nM and > 10000 nM | GI50 [17]: 326 nM and 122 nM | TGI [17]: 12700 nM and > 10000 nM | GI50 [18]: 105 nM and 51.4 nM | TGI [18]: 676 nM and 667 nM | GI50 [19]: 248 nM and 110 nM | TGI [19]: 16400 nM and > 10000 nM | GI50 [20]: 49.5 nM and 37.3 nM | TGI [20]: 422 nM and 328 nM | GI50 [21]: 40.7 nM and 30.3 nM | TGI [21]: 249 nM and 212 nM | GI50 [57]: 54 nM and 41 nM | TGI [57]: 707 nM and 444 nM | GI50 [22]: 40.6 nM | TGI [22]: 477 nM | GI50 [23]: 127 nM and 63.3 nM | TGI [23]: 12600 nM and > 10000 nM | GI50 [24]: 149 nM and 111 nM | TGI [24]: 5100 nM and > 4680 nM | GI50 [25]: 76.8 nM and 53.5 nM | TGI [25]: 1570 nM and > 3220 nM | GI50 [26]: 303 nM and 187 nM | TGI [26]: 10800 nM and > 7650 nM | GI50 [27]: 191 nM and 95.6 nM | TGI [27]: > 100000 nM | GI50 [58]: 23.5 nM and 21.7 nM | TGI [58]: 264 nM and 163 nM | GI50 [28]: 145 nM and 92.4 nM | TGI [28]: 1510 nM and 1490 nM | GI50 [29]: 302 nM and 132 nM | TGI [29]: > 100000 nM | GI50 [30]: 52.6 nM and 37.6 nM | TGI [30]: 1270 nM and 1320 nM | GI50 [31]: 143 nM and 53.9 nM | TGI [31]: > 100000 nM | GI50 [32]: 161 nM and 44.5 nM | GI50 [33]: 141 nM and 77.5 nM | TGI [33]: 23200 nM and > 10000 nM | GI50 [34]: 195 nM and 93.2 nM | TGI [34]: 741 nM and 538 nM | GI50 [35]: 717 nM and 361 nM | TGI [35]: 9780 nM and > 6740 nM | GI50 [36]: 34.8 nM and 23.7 nM | TGI [36]: 346 nM and 336 nM | GI50 [37]: 119 nM and 65.6 nM | TGI [37]: 6490 nM and > 3390 nM | GI50 [38]: 97.6 nM and 39.4 nM | TGI [38]: 413 nM and 255 nM | GI50 [39]: 105 nM | TGI [39]: 494 nM | GI50 [59]: 153 nM and 113 nM | TGI [59]: 14900 nM and > 10000 nM | GI50 [40]: 257 nM and 88.5 nM | TGI [40]: 13800 nM and > 10000 nM | GI50 [41]: 50.5 nM | TGI [41]: 512 nM | GI50 [42]: 120 nM and 69.4 nM | TGI [42]: 719 nM and 536 nM | GI50 [43]: 41.6 nM and 32.5 nM | TGI [43]: 341 nM and 216 nM | GI50 [44]: 203 nM and 87.4 nM | TGI [44]: > 100000 nM | GI50 [45]: 140 nM and 79.6 nM | TGI [45]: 16800 nM and > 5750 nM | GI50 [46]: 146 nM and 71.8 nM | TGI [46]: 3440 nM and 1160 nM | GI50 [47]: 126 nM and 81 nM | TGI [47]: 1390 nM and 1410 nM | GI50 [48]: 58.4 nM and 63.8 nM | TGI [48]: 317 nM and 480 nM | GI50 [49]: 69.1 nM and 66.9 nM | TGI [49]: 847 nM and 1400 nM | GI50 [50]: 51.3 nM | TGI [50]: 653 nM | GI50 [51]: 154 nM and 69.7 nM | TGI [51]: 2900 nM and > 4100 nM | GI50 [53]: 105 nM and 52.5 nM | TGI [53]: 696 nM and 414 nM | GI50 [54]: 143 nM and 77.3 nM | TGI [54]: 2500 nM and 573 nM | GI50 [55]: 203 nM and 133 nM | TGI [55]: 29800 nM and > 6670 nM
